Measurements reported in patent publication US20070264324A1, “Use of Vegetable Anthraquinone Derivatives and Vegetable Polysaccharides For Treating Human Immunodeficiency Virus (HIV)” (priority 2004, published 2007).

Tested on: TC740 cells
Assay type: cell-based
Details: 72 h
Experimental: The present invention relates to using emodin and RRP to inhibit HIV in an exogenous (however endocellular) environment, in order to attest their anti-HIV effectiveness. More specifically, the invention includes: • 1. Preparing emodin and RRP solutions with various concentrations (70-98% for emodin, and 80-95% for RRP). • 2. Culturing test subjects containing 100 μL of cells using cell incubator under 37° C. and 5% CO2 for 24 hours, forming monolayer on each culture media. • 3. Testing the toxicity of the agents: apply Rheum rhaponticum extractions to the monolayer on culture medium. Maintain the culture media under 37° C. and 5% CO2 for 72 hours, and observe the monolayer for cellular viability. […] These standard concentrations of emodin range between 70% and 98%, and those of RRP range between 80% and 95%. • 4. Testing the anti-HIV effectiveness of emodin and RRP: apply a specific concentration of HIV to those culture medium containing viable cells and already applied with emodin and/or RRP. Observe the viability of cells, and compare them with those in the control groups.
3. Cytotoxicity test: apply an emodin/RRP mixture with a concentration between 1600 μg/mL and 25 μg/mL to the culture medium, and maintain the medium under […] for 72 hours before observing.

standard concentrations that do not affect the growth of cells: 70% and 98%
SMILES: Cc1cc(O)c2c(c1)C(=O)c1cc(O)cc(O)c1C2=O [emodin]
